This is an account of results in patent US9040693B2, “Fused heterocyclic derivative, medicinal composition containing the same, and medicinal use thereof” (KISSEI PHARMACEUTICAL CO., LTD., priority 2005, dated 2015).

A short description of series [1]: Assay for oral absorbability: plasma drug concentration in rats after intravenous (1 mg/kg) and oral (3 mg/kg) administration (Cmax, bioavailability, C360). The format is in vivo. Particulars: SD rats; for blood concentration 6 hours after oral administration, sustainability (in words) / availability by oral administration (in words): oral 3 mg/kg; for blood concentration 6 hours after oral administration, sustainability (in words): 360 minutes, compared with Control compounds 1 and 2; for availability by oral administration (in words): compared with the compounds of Example 22 (sulfonamide) and Example 95 (amide); for Cmax / bioavailability: male, rat, plasma; for Cmax / C360 (plasma drug concentration at 360 minutes after administration): oral administration, 3 mg/kg; for Cmax: read-out: Cmax (maximum plasma drug concentration); for C360 (plasma drug concentration at 360 minutes after administration): class symbols; for bioavailability: oral 3 mg/kg vs intravenous 1 mg/kg. On the procedure: Assay for Oral Absorbability
1) Preparation of the Samples for Measurement of the Drug Concentration After Intravenous Injection to the Tail Vein
As experimental animal, overnight fasted SD rats (Charles River, male, 7 weeks of age, 170-210 g) were used. One mg of a test compound was dissolved by adding 0.2 mL of N,N-dimethylacetoamide, 0.798 mL of saline and 0.002 mL of 2N NaOH, and then 1.0 mg/mL solution was prepared. The body weights of rats were measured, and the solution of the test compound was injected intravenously to the tail vein of unanesthetized rats at the dose of 1 mL/kg (1 mg/kg). The intravenous injection to the tail vein was performed with 26 G injection needle and 1 mL syringe. The sampling times for collection of blood were 2, 15, 60, 120, 240 and 360 minutes after the intravenous injection to the tail vein. The blood was centrifuged, and the plasma was used as the sample for measurement of the drug concentration in blood.
2) Preparation of the Samples for Measurement of the Drug Concentration After Oral Administration
As experimental animal, overnight fasted SD rats (Charles River, male, 7 weeks of age, 170-210 g) were used. Three mg of a test compound was dissolved by adding 0.2 mL of N,N-dimethylacetoamide, 9.794 mL of 0.5% aqueous sodium methylcellulose solution and 0.006 mL of 2N NaOH, and then 0.3 mg/mL solution was prepared. The body weights of rats were measured, and the solution of the test compound was administered orally at the dose of 10 mL/kg (3 mg/kg). The oral administration was performed with gastric tube for rat and 2.5 mL syringe. The sampling times for collection of blood were 15, 30, 60, 120, 240 and 360 minutes after the oral administration. The blood was centrifuged, and the plasma was used as the sample for measurement of the drug concentration in blood.
3) Measurement of the Drug Concentration
To 0.025 mL of the plasma obtained in 1) and 2) described above, 0.1 mL of an adequate internal standard material was added according to the usual method, and then deproteinization was performed by adding 0.875 mL of acetonitrile. After centrifugation, 0.005 mL of the supernatant was injected into LC-MS/MS. The drug concentration in plasma was measured by LC-MS/MS method under the conditions as follows. To 0.05 mL of the blank plasma were added the internal standard material and various test compounds adequately according to the usual method, similar operating described above was done, and then the standard curves were prepared.
Each area under the plasma drug concentration-time curve by intravenous injection to the tail vein and oral administration of the test compound was estimated with WinNonlin Professional by Pharsight Corporation from the plasma drug concentration at each time obtained from the above mentioned method, and then the bioavailability (%) was calculated based on the following formula.
Bioavailability (%)={[(Area under the plasma drug concentration-time curve by oral administration)/3]/(area under the plasma drug concentration -time curve by intravenous injection to the tail vein)}×100
In the oral administration, the maximum plasma drug concentration (Cmax), bioavailability and the plasma drug concentration at 360 minutes after administration (C360) are shown in Tables 110 to 112.

Series [2] concerns the target human GnRH receptor1 (GnRHR1) (Homo sapiens (Human), UniProt P30968). Kind of series: Assay of GnRH antagonizing effect: inhibition of GnRH-stimulated intracellular calcium flux in HEK293 cells transiently expressing human GnRHR1. Particulars: 5 nM GnRH, FLIPR calcium dye, read-out: IC50 (drug concentration at which 50% GnRH-stimulated intracellular calcium flux was inhibited). Format: cell-based. From the text: 1) Cloning and Construction of the Vector Expressing Human GnRH Receptor1 (GnRHR1)
Using cDNA deprived from human pituitary (BECTON DICKINSON) as a template, the DNA fragment coding 45 to 1115 bp of human GnRHR1 (Accession No. L03380), which was reported by Kakar et al., was amplified by PCR method and inserted into the multi-cloning site of pcDNA3.1(+) (Invitrogen). The DNA sequence inserted was perfectly matched to the previously reported sequence.
2) Preparation of HEK293 (Human Embryonic Kidney) Cells Expressing Human GnRH Receptor1
The expression vector introduced human GnRHR1 gene was transfected into cultured HEK293 cells (medium : MEM, 10% FCS, containing antibiotics, non-essential amino acids and pyruvic acid) by means of lipofection with the use of Lipofectamine2000 (Invitrogen). After transfection, the cells were cultured for 2 days, and used for examinations.
3) Assay of GnRH Antagonizing Effect
Antagonizing effect of compounds for human GnRHR1 was evaluated by change of calcium levels in GnRH-stimulated cells. After removing the culture medium of HEK293 cells transiently expressing human GnRHR1, cells were washed with 200 μL piper well of the washing buffer (Hank's Balanced Salt Solutions, 20 mM N-2-hydroxyethylpiperazine-N′-2-ethanesulfonic acid, 1.3 mM calcium chloride, 0.5 mM magnesium chloride, 0.4 mM magnesium sulfate). One hundred μL of the Ca^2+sensitive dye solution (FLIPR Calcium Assay Kit (Molecular Devices)) was added to the well, and the cells were incubated for 1 hour at 37° C., 5% CO2. Then, intracellular calcium levels were determined under the following condition by using FLEX STATION (Molecular Devices). In the equipment, which was warmed to 37° C., 50 μL of test compound diluted with the measurement buffer (the washing buffer with 0.1% Albumin bovine serum) was added to the well. After 1 minute, 50 μL of 5 nM GnRH was added to the well. The drug concentration, at which 50% GnRH-stimulated intracellular calcium flux was inhibited (IC50 value), was calculated using logit plot (Table 108).

Sequence of human GnRH receptor1 (GnRHR1) (P30968 whole entry, the tested form may be a part): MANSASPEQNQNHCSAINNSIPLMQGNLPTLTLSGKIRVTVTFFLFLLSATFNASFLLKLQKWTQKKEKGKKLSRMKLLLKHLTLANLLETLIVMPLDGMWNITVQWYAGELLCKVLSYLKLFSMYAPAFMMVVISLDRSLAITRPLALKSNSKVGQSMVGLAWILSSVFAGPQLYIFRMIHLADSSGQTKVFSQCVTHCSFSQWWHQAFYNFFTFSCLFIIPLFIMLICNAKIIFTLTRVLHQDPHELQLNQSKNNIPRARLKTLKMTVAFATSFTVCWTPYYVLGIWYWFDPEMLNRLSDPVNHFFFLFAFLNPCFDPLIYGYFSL

For the compound `COc1cc(F)c(-n2c(=O)[nH]c3csc(C(=O)O)c3c2=O)cc1CN(C)c1c(F)cccc1F` [Example 420], in series [1], the “blood concentration 6 hours after oral administration, sustainability (in words)” value (from here on “blood concentration 6 hours”) was “maintain their blood concentrations 6 hours after the oral administrations”; the “availability by oral administration (in words)” value (from here on “availability … (in words)”) is given as “more excellent availability”; the Cmax came to 15200 ng/mL; the “C360 (plasma drug concentration at 360 minutes after administration)” value was “B (B: 300 ng/mL to 1000 ng/mL)”. Further, the IC50 in series [2] is 29 nM.

`O=c1[nH]c2ccsc2c(=O)n1-c1cc(S(=O)(=O)N2CCCc3ccccc32)ccc1Cl` [Example 2]: the IC50 in series [2] is 199 nM.

For the compound `O=C(O)c1scc2[nH]c(=O)n(-c3cc(S(=O)(=O)N4CCCc5ccccc54)ccc3Cl)c(=O)c12` [Example 22, 5-Carboxy-3-[2-chloro-5-(3,4-dihydroquinolin-1(2H)-yl-sulfonyl)phenyl]thieno[3,4-d]pyrimidine-2,4(1H,3H)-dione], in series [1], the bioavailability amounted to 11% and the Cmax was found to be 342 ng/mL. The IC50 in series [2] came to 2 nM.

Turning to `CNC(=O)c1scc2[nH]c(=O)n(-c3cc(S(=O)(=O)N4CCCc5ccccc54)ccc3Cl)c(=O)c12` [Example 31, 5-Methylcarbamoyl-3-[2-chloro-5-(3,4-dihydroquinolin-1(2H) -ylsulfonyl)phenyl]thieno[3,4-d]pyrimidine-2,4(1H,3H)-dione], the IC50 in series [2] was found to be 272 nM.

Regarding `COCCOc1ccc(F)c(F)c1COc1ccc(F)c(-n2c(=O)[nH]c3csc(C(=O)O)c3c2=O)c1` [Example 367], in series [1], the “blood concentration 6 hours” value was “maintain their blood concentrations 6 hours after the oral administrations”; the “availability … (in words)” value is “more excellent availability”; the Cmax turned out to be 14100 ng/mL; the “C360 (plasma drug concentration at 360 minutes after administration)” value is “A (A: >1000 ng/mL)”. For the same compound, in series [2], the IC50 was 15 nM.

On to `O=c1[nH]c2sccc2c(=O)n1-c1cc(S(=O)(=O)N2CCCc3ccccc32)ccc1Cl` [Example 3], for which, in series [2], the IC50 is 80 nM.

As to `CC(C)(C(=O)c1ccc(Cl)c(-n2c(=O)[nH]c3csc(C(=O)O)c3c2=O)c1)c1ccccc1` [Example 146], in series [1], the “blood concentration 6 hours” value is “maintain their blood concentrations 6 hours after the oral administrations”; the “availability … (in words)” value is on record as “more excellent availability”; the Cmax was determined as 17900 ng/mL; the “C360 (plasma drug concentration at 360 minutes after administration)” value is listed as “A (A: >1000 ng/mL)”. In series [2], the IC50 turned out to be 10 nM.

As for `Cc1ccccc1COc1ccc(Cl)c(-n2c(=O)[nH]c3csc(C(=O)O)c3c2=O)c1` [Example 25], the IC50 in series [2] worked out at 85 nM.

Take `COc1ccc(F)cc1C(C)(C)Sc1ccc(F)c(-n2c(=O)[nH]c3csc(C(=O)O)c3c2=O)c1` [Example 191]: in series [1], the “availability … (in words)” value was “more excellent availability” and the Cmax amounted to 13500 ng/mL. Besides, the IC50 in series [2] came out at 17 nM.

For `COc1cc(F)c(-n2c(=O)[nH]c3csc(C(=O)O)c3c2=O)cc1OCc1c(OC)ccc(F)c1F` [Example 233, 5-Carboxy-3-[2-fluoro-5-(2,3-difluoro-6-methoxybenzyloxy) -4-methoxyphenyl]thieno[3,4-d]pyrimidine-2,4(1H,3H)-dione], in series [1], the “blood concentration 6 hours” value is given as “maintain their blood concentrations 6 hours after the oral administrations”; the “availability … (in words)” value is listed as “more excellent availability”; the Cmax is 25000 ng/mL; the “C360 (plasma drug concentration at 360 minutes after administration)” value is “A (A: >1000 ng/mL)”. Also, in series [2], the IC50 is 15 nM.

Take `CC(C)(c1ccccc1)S(=O)(=O)c1ccc(F)c(-n2c(=O)[nH]c3csc(C(=O)O)c3c2=O)c1` [Example 202, 5-Carboxy-3-[2-fluoro-5-(1-methyl-1-phenylethylsulfonyl) -phenyl]thieno[3,4-d]pyrimidine-2,4(1H,3H)-dione]: in series [1], the “blood concentration 6 hours” value was “maintain their blood concentrations 6 hours after the oral administrations”; the “availability … (in words)” value is on record as “more excellent availability”; the Cmax was found to be 1310 ng/mL; the “C360 (plasma drug concentration at 360 minutes after administration)” value is on record as “B (B: 300 ng/mL to 1000 ng/mL)”. Further, the IC50 in series [2] is 20 nM.

For `COc1cc(F)c(-n2c(=O)[nH]c3csc(C(=O)O)c3c2=O)cc1COc1c(OC)ccc(F)c1F` [Example 414], in series [1], the “blood concentration 6 hours” value is recorded as “maintain their blood concentrations 6 hours after the oral administrations”; the “availability … (in words)” value is recorded as “more excellent availability”; the Cmax is 25600 ng/mL; the “C360 (plasma drug concentration at 360 minutes after administration)” value is on record as “A (A: >1000 ng/mL)”. Further, the IC50 in series [2] was 42 nM.

For `COc1cccc(F)c1C(C)Oc1ccc(F)c(-n2c(=O)[nH]c3csc(C(=O)O)c3c2=O)c1` (stereo not drawn) [Example 48, 5-Carboxy-3-{2-fluoro-5-[1-(2-fluoro-6-methoxyphenyl) -ethoxy]phenyl}[3,4-d]pyrimidine-2,4(1H,3H)-dione], in series [1], the “availability … (in words)” value is listed as “more excellent availability”, the bioavailability came to 65% and the Cmax amounted to 14500 ng/mL. In addition, the IC50 in series [2] is 29 nM.

Consider `CN(C(=O)c1ccc(Cl)c(-n2c(=O)[nH]c3csc(C(=O)O)c3c2=O)c1)c1ccccc1` [Example 95], for which the Cmax in series [1] was 322 ng/mL. Moreover, in series [2], the IC50 amounted to 19 nM.

Take `CC(C)(Oc1ccc(Cl)c(-n2c(=O)[nH]c3csc(C(=O)O)c3c2=O)c1)c1ccccc1` [Example 271]: in series [1], the “blood concentration 6 hours” value is “maintain their blood concentrations 6 hours after the oral administrations”; the “availability … (in words)” value is on record as “more excellent availability”; the Cmax stood at 17600 ng/mL; the “C360 (plasma drug concentration at 360 minutes after administration)” value is “A (A: >1000 ng/mL)”.

Take `Cc1cccc(N(C)S(=O)(=O)c2ccc(Cl)c(-n3c(=O)[nH]c4sccc4c3=O)c2)c1` [Example 17]: in series [2], the IC50 came to 101 nM.
